Results as given in US9389223B2, “Pharmacodynamic assays” (The United States of America, as represented by the …, priority 2004, dated 2016).

How the values were obtained:
acetylated lysine = experiment: Flow cytometry of acetylated lysine in K562 cells co-stained for activated caspase 3; format: cell-based, human; conditions: K562, 1 μM, 48 hours
Experimental: (§1) K562 chronic myelogenous leukemia cells were incubated with vehicle alone, 1 μM imatinib (the anticancer drug also known as Gleevec), 1 μM MS-275, or both for 48 hours. The cells were then stained for acetylated lysine as described above and co-stained with antibody to activated caspase 3 as an indicator of cells undergoing apoptosis. Dot plots display acetylated lysine on the x-axis and activated caspase 3 on the y-axis. The multiparameter flow cytometric assay is a powerful tool to monitor pharmacodynamic changes induced by anticancer drugs used in monotherapy or combination therapy protocols. HDAC inhibitors have been reported to promote imatinib-mediated apoptosis in Bcr/Abl+ human myeloid leukemia cells, including imatinib-resistant cells. The effect of MS-275 and imatinib were therefore examined, alone and in combination, on apoptosis in the Bcr/Abl+ cell line K562. Because both MS-275 and imatinib have been reported to induce apoptosis associated with caspase 3 activation, an antibody was used that specifically recognizes activated caspase 3 in a flow assay. This caspase 3 flow assay effectively monitors drug-induced apoptosis. When combined detection of acetylated lysine, this flow assay permitted simultaneous monitoring of apoptosis (caspase 3) and acetylated lysine.

[1] = system: K562 chronic myelogenous leukemia cells; experiment: Flow cytometry of apoptosis (activated caspase 3) in K562 cells; format: cell-based, human; conditions: K562, 1 μM, 48 hours, single drug
Experimental: as §1

acetylated tubulin = experiment: Flow cytometry of acetylated tubulin in K562 cells; format: cell-based; conditions: single drug
Text: (§2) Leukemia K562 cell line samples containing approximately 5×10^6 to 1×10^7 cells were exposed to either the anti-cancer drug 17-allylaminogeldanamycin (17-AAG) or one of the deacetylase inhibitors MS-275 or trichostatin A (TSA). Some samples received both 17-AAG and TSA or both 17-AAG and MS-275. Control samples received no drug. Administration of the 17-AAG anti-cancer drug led to functional changes in Hsp90 and increased expression of Hsp70. […] TSA is a deacetylase inhibitor that can affect acetylation of numerous proteins. In this study, the effect of TSA on tubulin acetylation was observed using an antibody that specifically binds to acetylated tubulin.
(§3) After treatment with the various drugs, the cells were resuspended in fixation solution (0.4% paraformaldehyde in PBS), incubated at 37° C. for 5-10 minutes and washed with wash buffer. The fixed cells were then resuspended in permeabilization solution (4% Triton X-100 in wash buffer) and incubated at room temperature for 5 minutes. Cells were incubated for 1 hour at room temperature with antibodies to the various pharmacodynamic markers. Several cell samples were incubated with antibodies to several markers at once. […] Fluorescence associated with the cells was detected and quantified by flow cytometry.

Hsp70 = experiment: Flow cytometry of Hsp70 levels in K562 cells; format: cell-based; conditions: single drug, relative to control cells
Text: as §2, §3

Structure (SMILES): Cc1ccc(NC(=O)c2ccc(CN3CCN(C)CC3)cc2)cc1Nc1nccc(-c2cccnc2)n1 [imatinib, 4-[(4-Methyl-1-piperazinyl)methyl]-N-[4-methyl-3-[[4-(3-pyridinyl)-2-yrimidinyl]amino]-phenyl]benzamide methanesulfonate]
- acetylation of the activated caspase 3 positive cell population (acetylated lysine): lost acetylation
- percent of apoptotic cells (activated caspase 3) [1]: increased the percent of apoptotic cells

Structure (SMILES): CC(/C=C/C(=O)NO)=C\[C@@H](C)C(=O)c1ccc(N(C)C)cc1 [TSA, trichostatin A]
- levels of acetylated tubulin (acetylated tubulin): increased levels of acetylated tubulin

Structure (SMILES): C=CCNC1=C2C[C@@H](C)C[C@H](OC)[C@H](O)[C@@H](C)/C=C(\C)[C@H](OC(N)=O)[C@@H](OC)/C=C\C=C(/C)C(=O)NC(=CC1=O)C2=O [17-AAG, 17-allylaminogeldanamycin]
- levels of Hsp70 (Hsp70): increased levels of Hsp70

Structure (SMILES): Nc1ccccc1NC(=O)c1ccc(CNC(=O)OCc2cccnc2)cc1 [MS-275, N-(2-aminophenyl)-4-[N-(pyridin-3-ylmethoxycarbonyl)aminomethyl]benzamide]
- cells with strongly upregulated acetylation (acetylated lysine): over 50%
